One molecule from patent US20170303817A1, “SURGICAL ARTICLES AND METHODS FOR DETECTION” (GEORGIA STATE UNIVERSITY RESEARCH FOUNDATION, INC., priority 2014, published 2017) can be followed below.

The nature of series [1]: NIR dye leaching from sponges: fluorescence of canine blood samples. To be noted: for fluorescence of test canine blood sample (ICG leaching): blood and DMSO in a 1:3 ratio.
Series [2] can be described thus: In vivo detection of ICG sponge in canine surgical site, 780 nm laser. Set-up: species or system dog. To be noted: FIG. 7. As for the experimental part: Method: A stray female dog (Doberman […]) underwent an ovariohysterectomy procedure. After making an incision in the dog's abdomen, a standard 4×4 surgical gauze was placed inside the surgical site and allowed to become saturated with blood. A 780 nm laser was focused on a portion of the gauze and the area photographed and observed for excitation. This experiment was repeated using a sponge soaked in 1 mM ICG dye solution for 1 hr and a sponge soaked in 1 mM ICG dye solution for 24 hrs. Prior to in vivo use, the sponges first underwent sterilization: Steam sterilization at 350° F. for 20 min and gas sterilization in ethylene oxide for 12-24 hr.

In the case of `CC1(C)C(/C=C/C=C/C=C/C=C2\N(CCCCS(=O)(=O)O)c3ccc4ccccc4c3C2(C)C)=[N+](CCCCS(=O)(=O)[O-])c2ccc3ccccc3c21` [ICG, indocyanine green], the “fluorescence of test canine blood sample (ICG leaching)” value in series [1] (1 hr after sponge placement) and in series [1] (4 hours after sponge placement) was “no fluorescence” throughout. For the same molecule, in series [1] (canine blood spiked with 0.1 mM solution of ICG in DMSO, FIG. 8), the “fluorescence wavelength in control canine blood sample” value is given as 815 nm. The “fluorescence of sponge soaked for 24 hrs compared to sponge soaked for 1 hr” value in series [2] (1 mM ICG dye solution) is “increase in florescence”. For the same molecule, the “fluorescence of treated sponge compared to the untreated sponge” value in series [2] (sponge treated with 1 mM ICG solution) is recorded as “significant increase in the fluorescence”.
